Drawing on ChEMBL document CHEMBL3045904, “Synthesis, AM1 calculation, and biological studies of thiopyran-4-one and their azine derivatives” (2007), this text covers MIC for nine molecules.

What all share (type): functional
Experiment [1] concerns Pseudomonas aeruginosa. The experiment can be described thus: Antibacterial activity against Pseudomonas aeruginosa after 24 hr by twofold serial dilution method.
For experiment [2], the system named is Aspergillus flavus. The experiment can be described thus: Antifungal activity against Aspergillus flavus after 72 to 96 hr by two-fold serial dilution method.
The test system of experiment [3] is Enterococcus faecalis. The experiment can be described thus: Antibacterial activity against Enterococcus faecalis after 24 hr by two-fold serial dilution method.
In experiment [4] the test system is Staphylococcus aureus. The experiment can be described thus: Antibacterial activity against Staphylococcus aureus after 24 hr by two-fold serial dilution method.
The test system of experiment [5] is Candida. Description: Antifungal activity against Candida-6 after 72 to 96 hr by two-fold serial dilution method.
In experiment [6] the test system is Candida. The experiment can be described thus: Antifungal activity against Candida-51 after 72 to 96 hr by two-fold serial dilution method.
Experiment [7] relates to Escherichia coli. Description: Antibacterial activity against Escherichia coli after 24 hr by two-fold serial dilution method.
Experiment [8] deals with Bacillus subtilis. The experiment can be described thus: Antibacterial activity against Bacillus subtilis after 24 hr by two-fold serial dilution method.
Experiment [9] deals with Aspergillus niger. Description: Antifungal activity against Aspergillus niger after 72 to 96 hr by two-fold serial dilution method.

≈ marks a conversion by molar mass, not a printed value. Calls of active or inactive are those of the source. The rule behind the calls is not given here.

In the case of `O/N=C1\C[C@@H](c2ccccc2)S[C@@H](c2ccccc2)C1`, the MIC entry in [1], in experiment [3], in [6], in experiment [7] and in experiment [9] was “inactive” each time. Besides, the MIC in experiment [2], in experiment [4], in experiment [5] and in experiment [8] was 100 mg/L (≈ 353 µM) throughout.

Regarding `O=C1C[C@@H](c2ccccc2)S[C@@H](c2ccccc2)C1`, the MIC entry in experiment [1], in [3], in experiment [6], in experiment [7] and in experiment [9] was “inactive” in each case. For the same molecule, the minimum inhibitory concentration (MIC) in experiment [2], in experiment [4], in experiment [5] and in [8] was 100 mg/L (≈ 373 µM) each time.

Regarding `COc1ccc(/C=N/N=C2\C[C@@H](c3ccccc3)S[C@@H](c3ccccc3)C2)cc1` (relative stereo), the MIC (as a rule, the lowest concentration found to suppress growth) in experiment [1] was 50 mg/L (≈ 125 µM); in [2], 100 mg/L (≈ 250 µM); in experiment [3], 25 mg/L (≈ 62.4 µM); in [4], 25 mg/L (≈ 62.4 µM); in experiment [5], 12.5 mg/L (≈ 31.2 µM); in [6], 12.5 mg/L (≈ 31.2 µM). For the same molecule, the MIC in experiment [7] turned out to be 12.5 mg/L (≈ 31.2 µM); in experiment [8], 6.25 mg/L (≈ 15.6 µM); in experiment [9], 50 mg/L (≈ 125 µM).

`N/N=C1\C[C@@H](c2ccccc2)S[C@@H](c2ccccc2)C1` (relative stereo): the MIC in [1] came to 100 mg/L (≈ 354 µM); in experiment [2], 100 mg/L (≈ 354 µM); in experiment [3], 100 mg/L (≈ 354 µM); in experiment [4], 100 mg/L (≈ 354 µM); in [5] it was 50 mg/L (≈ 177 µM); in [6], 100 mg/L (≈ 354 µM). For the same molecule, the MIC amounted to 50 mg/L (≈ 177 µM) in experiment [7], 100 mg/L (≈ 354 µM) in experiment [8] and 100 mg/L (≈ 354 µM) in experiment [9].

In the case of `c1ccc([C@@H]2C/C(=N\N=C3/C[C@@H](c4ccccc4)S[C@@H](c4ccccc4)C3)C[C@H](c3ccccc3)S2)cc1`, the MIC in [1] was found to be 50 mg/L (≈ 93.8 µM); in [2], 100 mg/L (≈ 188 µM); in [3], 100 mg/L (≈ 188 µM); in experiment [4] it was 25 mg/L (≈ 46.9 µM); in [5] it was 100 mg/L (≈ 188 µM); in experiment [6] it was 50 mg/L (≈ 93.8 µM). The MIC in experiment [7] came out at 100 mg/L (≈ 188 µM); in experiment [8], 50 mg/L (≈ 93.8 µM); in experiment [9], 50 mg/L (≈ 93.8 µM).

Turning to `O=[N+]([O-])c1ccccc1/C=N/N=C1\C[C@@H](c2ccccc2)S[C@@H](c2ccccc2)C1` (relative stereo), the MIC in experiment [1] amounted to 50 mg/L (≈ 120 µM); in [2] it was 100 mg/L (≈ 241 µM); in experiment [3] it was 50 mg/L (≈ 120 µM); in experiment [4], 25 mg/L (≈ 60.2 µM); in experiment [5] it was 50 mg/L (≈ 120 µM); in [6], 25 mg/L (≈ 60.2 µM). The figures for the minimum inhibitory concentration (MIC) in [7], in [8] and in experiment [9] were 100 mg/L (≈ 241 µM), 25 mg/L (≈ 60.2 µM) and 100 mg/L (≈ 241 µM), respectively.

As to `CN[C@@H]1[C@H](O[C@H]2[C@H](O[C@H]3[C@H](O)[C@@H](O)[C@H](N=C(N)N)[C@@H](O)[C@@H]3N=C(N)N)O[C@@H](C)[C@]2(O)C=O)O[C@@H](CO)[C@H](O)[C@H]1O` [STREPTOMYCIN], the MIC in experiment [1] came out at 25 mg/L (≈ 43 µM); in experiment [3] it was 50 mg/L (≈ 86 µM); in experiment [4], 25 mg/L (≈ 43 µM); in [7], 12.5 mg/L (≈ 21.5 µM); in experiment [8], 12.5 mg/L (≈ 21.5 µM).

In the case of `Oc1ccccc1/C=N/N=C1\C[C@@H](c2ccccc2)S[C@@H](c2ccccc2)C1` (relative stereo), the MIC in [1] came to 25 mg/L (≈ 64.7 µM); in experiment [2] it was 50 mg/L (≈ 129 µM); in experiment [3] it was 25 mg/L (≈ 64.7 µM); in experiment [4], 25 mg/L (≈ 64.7 µM); in experiment [5] it was 12.5 mg/L (≈ 32.3 µM); in experiment [6], 12.5 mg/L (≈ 32.3 µM). Also, the figures for the MIC in experiment [7], in experiment [8] and in experiment [9] were 12.5 mg/L (≈ 32.3 µM), 6.25 mg/L (≈ 16.2 µM) and 25 mg/L (≈ 64.7 µM), respectively.

Consider `C[C@@H]1[C@H](O)[C@@H](C)/C=C/C=C/C=C/C=C/C=C/C=C/C=C/[C@H](O[C@@H]2O[C@H](C)[C@@H](O)[C@H](N)[C@@H]2O)C[C@@H]2O[C@](O)(C[C@@H](O)C[C@@H](O)[C@H](O)CC[C@@H](O)C[C@@H](O)CC(=O)O[C@H]1C)C[C@H](O)[C@H]2C(=O)O` [AMPHOTERICIN B], for which the MIC in experiment [2] amounted to 50 mg/L (≈ 54.1 µM); in experiment [5], 25 mg/L (≈ 27.1 µM); in experiment [6], 25 mg/L (≈ 27.1 µM); in experiment [9], 50 mg/L (≈ 54.1 µM).
